For test [1], the system named is Strep. faecalis L149 ATCC 7080. In words: MIC, microbroth dilution. The settings on record: inocula 10^4 to 10^5 CFU/ml, Iso-Sensitest broth, 18-24 h, 37° C. In kind it is cell-based, Streptococcus faecalis. The procedure:
(§1) MIC for Propionibacterium aches, and Bacteroides fragilis are determined by agar dilution (inocula 10^4 /10^5 CFU/spot). MIC for other organisms are determined by microbroth dilution (inocula 10^4 to 10^5 CFU/ml). Incubation times are 18-24 h, except for Haemophilus influenzae, P. acnes, B. fragilis (48 h). All organisms are incubated at 37° C.; H. influenzae is incubated in a 5% CO2 atmosphere, anaerobes in an anaerobic gas mixture. Media used are: Iso-Sensitest broth (Oxoid) (Staphylococci, Streptococcus faecalis, Escherichia coli, Proteus vulgaris; brain heart infusion broth (Difco)+1% Supplement C (Difco) (H. influenzae); The minimal inhibitory concentrations (MIC, microgram/ml) for some microorganisms are reported below in Table VII.
On the technique in general: Dilution methods test growth across graded concentrations, often in twofold steps.

For test [2], the system named is Prop. acnes L1014 ATCC 6919. As to the kind of experiment: MIC, agar dilution. The class given is cell-based, P. acnes. The settings on record: inocula 10^4 /10^5 CFU/spot, 48 h, 37° C., anaerobic gas mixture. The procedure: as §1
On the technique in general: In agar dilution the substance is mixed into plates at graded concentrations.

Test [3] has as its system Bact. fragilis L1010 ATCC 23745. In words: MIC, agar dilution. The class given is cell-based, Bacteroides fragilis. Particulars: inocula 10^4 /10^5 CFU/spot, 48 h, 37° C., anaerobic gas mixture. On the procedure: as §1
Test [4] deals with Haemophilus Influenzae type B. In words: MIC, microbroth dilution. The class given is cell-based. The settings on record: brain heart infusion broth +1% Supplement C, 48 h, 37° C., 5% CO2. The procedure: as §1
A further test relates to Staph. aureus L165 Tour. In words: MIC, microbroth dilution. In kind it is cell-based. The settings on record: inocula 10^4 to 10^5 CFU/ml, Iso-Sensitest broth, 18-24 h, 37° C. The procedure: as §1
Test [5] has as its system Staph. epidermidis L147 ATCC 12228. As to the kind of experiment: MIC, microbroth dilution. The settings on record: inocula 10^4 to 10^5 CFU/ml, Iso-Sensitest broth, 18-24 h, 37° C. The class given is cell-based. On the procedure: as §1
A further test has as its system Staph. haemolyticus L602. As to the kind of experiment: MIC, microbroth dilution. In kind it is cell-based. Particulars: inocula 10^4 to 10^5 CFU/ml, Iso-Sensitest broth, 18-24 h, 37° C. The procedure:
as §1

In test [6] the test system is Strep. pneumoniae L44 UC41. In words: MIC, microbroth dilution. The settings on record: inocula 10^4 to 10^5 CFU/ml, 18-24 h, 37° C. In kind it is cell-based. On the procedure:
as §1

The test system of a further test is Esch. coli L47 SKF 12140. In words: MIC, microbroth dilution. In kind it is cell-based, Escherichia coli. Particulars: inocula 10^4 to 10^5 CFU/ml, Iso-Sensitest broth, 18-24 h, 37° C. On the procedure: as §1
For the next test, the system named is Prot. vulgaris ATCC 881. As to the kind of experiment: MIC, microbroth dilution. The class given is cell-based, Proteus vulgaris. The settings on record: inocula 10^4 to 10^5 CFU/ml, Iso-Sensitest broth, 18-24 h, 37° C. The procedure: as §1

Turning to `CNC(=O)CC1NC(=O)c2nc(sc2COC)C(C(C)C)NC(=O)c2csc(n2)-c2ccc(-c3nc(C(=O)NC(CC(C)C)C(=O)O)cs3)nc2-c2csc(n2)-c2csc(n2)C(C(O)c2ccccc2)NC(=O)CNC(=O)c2nc1sc2C` (stereo not shown) [Compound 6], the MIC in [1] is under 0.13 microgram/ml; in test [2] it was under 0.13 microgram/ml; in test [3], over 128 microgram/ml; in test [4] it was 32 microgram/ml; against Staph. aureus L165 Tour it was under 0.13 microgram/ml; in test [5] it was 1 microgram/ml. The MIC against Staph. haemolyticus L602 is given as 1 microgram/ml; in test [6] it was 2 microgram/ml; in the test on Esch. coli L47 SKF 12140, over 128 microgram/ml; in the test with Prot. vulgaris ATCC 881, over 128 microgram/ml.
For the compound `CNC(=O)CC1NC(=O)c2nc(sc2COC)C(C(C)C)NC(=O)c2csc(n2)-c2ccc(-c3nc(C(=O)NCC(=O)O)cs3)nc2-c2csc(n2)-c2csc(n2)C(C(O)c2ccccc2)NC(=O)CNC(=O)c2nc1sc2C` (stereo not shown) [Compound 1], the MIC in test [1] was 0.25 microgram/ml; in [2], under 0.13 microgram/ml; in [3], 8 microgram/ml; in test [4], 8 microgram/ml; against Staph. aureus L165 Tour, 0.5 microgram/ml; in [5], 1 microgram/ml. For the same compound, the MIC with Staph. haemolyticus L602 is recorded as 4 microgram/ml; in [6], 8 microgram/ml; in the test with Esch. coli L47 SKF 12140 it was over 128 microgram/ml; with Prot. vulgaris ATCC 881, over 128 microgram/ml.
In the case of `CNC(=O)CC1NC(=O)c2nc(sc2COC)C(C(C)C)NC(=O)c2csc(n2)-c2ccc(-c3nc(C(=O)NCCOCCC(=O)O)cs3)nc2-c2csc(n2)-c2csc(n2)C(C(O)c2ccccc2)NC(=O)CNC(=O)c2nc1sc2C` (stereo not shown) [Compound 41], the MIC in test [1] is recorded as at most 0.13 microgram/ml; in test [2] it was at most 0.13 microgram/ml; in test [3], 4 microgram/ml; in test [4] it was 1 microgram/ml; in the test with Staph. aureus L165 Tour it was 0.25 microgram/ml; in test [5] it was 0.5 microgram/ml. Besides, the MIC in the test on Staph. haemolyticus L602 is recorded as 1 microgram/ml; in test [6], 2 microgram/ml; in the test with Esch. coli L47 SKF 12140, over 128 microgram/ml; against Prot. vulgaris ATCC 881, over 128 microgram/ml.
As for `Cc1sc2nc1C(=O)NCC(=O)NC(C(O)c1ccccc1)c1nc(cs1)-c1nc(cs1)-c1nc(-c3nc(C(=O)NCCCCCC(=O)O)cs3)ccc1-c1nc(cs1)C(=O)NC(C(C)C)c1nc(cs1)C(=O)NC2CC(N)=O` (stereo not shown) [Compound 43], the MIC is on record as 0.13 microgram/ml in test [1]; 0.016 microgram/ml in test [2]; over 128 microgram/ml in test [3]; over 128 microgram/ml in test [4]; 0.13 microgram/ml with Staph. aureus L165 Tour; 0.5 microgram/ml in test [5]. Besides, the MIC in the test on Staph. haemolyticus L602 is listed as 0.5 microgram/ml; in test [6], 0.5 microgram/ml; in the test with Esch. coli L47 SKF 12140, over 128 microgram/ml; with Prot. vulgaris ATCC 881 it was over 128 microgram/ml.
Take `CNC(=O)CC1NC(=O)c2nc(sc2COC)C(C(C)C)NC(=O)c2csc(n2)-c2ccc(-c3nc(C(=O)NCC(=O)N4CCCC4C(N)=O)cs3)nc2-c2csc(n2)-c2csc(n2)C(C(O)c2ccccc2)NC(=O)CNC(=O)c2nc1sc2C` (stereo not shown) [Compound 14]: the MIC in [1] was 0.06 microgram/ml; in test [2], 0.03 microgram/ml; in [3], over 128 microgram/ml; in test [4] it was over 128 microgram/ml; against Staph. aureus L165 Tour it was 0.06 microgram/ml; in test [5], 0.13 microgram/ml. Also, the MIC against Staph. haemolyticus L602 is 0.25 microgram/ml; in test [6], over 128 microgram/ml; against Esch. coli L47 SKF 12140, over 128 microgram/ml; against Prot. vulgaris ATCC 881 it was over 128 microgram/ml.
As for `CNC(=O)CC1NC(=O)c2nc(sc2COC)C(C(C)C)NC(=O)c2csc(n2)-c2ccc(-c3nc(C(=O)NCCSCCC(=O)O)cs3)nc2-c2csc(n2)-c2csc(n2)C(C(O)c2ccccc2)NC(=O)CNC(=O)c2nc1sc2C` (stereo not shown) [Compound 39], the MIC in test [1] is on record as at most 0.13 microgram/ml; in test [2], at most 0.13 microgram/ml; in test [3], 8 microgram/ml; in test [4] it was 1 microgram/ml; against Staph. aureus L165 Tour, 0.13 microgram/ml; in test [5], 0.25 microgram/ml. Moreover, the MIC against Staph. haemolyticus L602 was 2 microgram/ml; in [6], 4 microgram/ml; against Esch. coli L47 SKF 12140 it was over 128 microgram/ml; with Prot. vulgaris ATCC 881, over 128 microgram/ml.
With `CNC(=O)CC1NC(=O)c2nc(sc2COC)C(C(C)C)NC(=O)c2csc(n2)-c2ccc(-c3nc(C(N)=O)cs3)nc2-c2csc(n2)-c2csc(n2)C(C(O)c2ccccc2)NC(=O)CNC(=O)c2nc1sc2C` (stereo not shown) [Compound 35], the MIC is reported as 0.06 microgram/ml in [1]; 0.004 microgram/ml in test [2]; over 128 microgram/ml in test [3]; over 128 microgram/ml in test [4]; 0.13 microgram/ml with Staph. aureus L165 Tour; 0.13 microgram/ml in [5]. Moreover, the MIC is listed as 0.5 microgram/ml against Staph. haemolyticus L602, over 128 microgram/ml in test [6], over 128 microgram/ml in the test on Esch. coli L47 SKF 12140 and over 128 microgram/ml with Prot. vulgaris ATCC 881.
With `CNC(=O)CC1NC(=O)c2nc(sc2COC)C(C(C)C)NC(=O)c2csc(n2)-c2ccc(-c3nc(C(=O)NCCCC=CC(=O)O)cs3)nc2-c2csc(n2)-c2csc(n2)C(C(O)c2ccccc2)NC(=O)CNC(=O)c2nc1sc2C` (stereo not shown) [Compound 40], the MIC in test [1] is at most 0.13 microgram/ml; in [3], 4 microgram/ml; in test [4], 1 microgram/ml; with Staph. aureus L165 Tour, 0.25 microgram/ml; in test [5] it was 0.25 microgram/ml; against Staph. haemolyticus L602, 1 microgram/ml. For the same compound, the values for the MIC (in [6]; in the test on Esch. coli L47 SKF 12140; in the test with Prot. vulgaris ATCC 881) were 1 microgram/ml, over 128 microgram/ml and over 128 microgram/ml, respectively.
Regarding `CNC(=O)CC1NC(=O)c2nc(sc2COC)C(C(C)C)NC(=O)c2csc(n2)-c2ccc(-c3nc(C(=O)NC(CCCN)C(=O)O)cs3)nc2-c2csc(n2)-c2csc(n2)C(C(O)c2ccccc2)NC(=O)CNC(=O)c2nc1sc2C.O=C(O)C(F)(F)F` (stereo not shown) [Compound 2], the MIC in test [1] is listed as 0.06 microgram/ml; in test [2], 0.06 microgram/ml; in test [3] it was over 128 microgram/ml; in [4], over 128 microgram/ml; with Staph. aureus L165 Tour, 0.13 microgram/ml; in test [5] it was 0.25 microgram/ml. Besides, the MIC in the test on Staph. haemolyticus L602 was 16 microgram/ml; in test [6] it was over 128 microgram/ml; in the test with Esch. coli L47 SKF 12140 it was over 128 microgram/ml; against Prot. vulgaris ATCC 881 it was over 128 microgram/ml.
With `CNC(=O)CC1NC(=O)c2nc(sc2COC)C(C(C)C)NC(=O)c2csc(n2)-c2ccc(-c3nc(C(=O)NC(CCSC)C(=O)O)cs3)nc2-c2csc(n2)-c2csc(n2)C(C(O)c2ccccc2)NC(=O)CNC(=O)c2nc1sc2C` (stereo not shown) [Compound 8], the MIC in test [1] is recorded as 0.25 microgram/ml; in test [2], under 0.13 microgram/ml; in test [3] it was 32 microgram/ml; in test [4] it was 64 microgram/ml; in the test on Staph. aureus L165 Tour, 0.25 microgram/ml; in test [5], 2 microgram/ml. Also, the MIC with Staph. haemolyticus L602 was 2 microgram/ml; in [6], 4 microgram/ml; with Esch. coli L47 SKF 12140 it was over 128 microgram/ml; in the test with Prot. vulgaris ATCC 881, over 128 microgram/ml.
Turning to `CNC(=O)CC1NC(=O)c2nc(sc2CO)C(C(C)C)NC(=O)c2csc(n2)-c2ccc(-c3nc(C(=O)NCCCCCC(=O)O)cs3)nc2-c2csc(n2)-c2csc(n2)C(C(O)c2ccccc2)NC(=O)CNC(=O)c2nc1sc2C` (stereo not shown) [Compound 44], the MIC in test [1] was 0.06 microgram/ml; in [2] it was 0.016 microgram/ml; in test [3], over 128 microgram/ml; in [4], over 128 microgram/ml; with Staph. aureus L165 Tour it was 0.13 microgram/ml; in test [5] it was 0.5 microgram/ml. For the same compound, the MIC with Staph. haemolyticus L602 is 1 microgram/ml; in test [6], 1 microgram/ml; in the test with Esch. coli L47 SKF 12140, over 128 microgram/ml; against Prot. vulgaris ATCC 881 it was over 128 microgram/ml.
